Results on 13 compounds are retold here after ChEMBL document CHEMBL1201862, “PubChem BioAssay data set” (2004).

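Step 1: Grow cells in 96-well plates. Step 2: Expose to compound for 48 hours at 5 concentrations. Step 3: Interpolate endpoints linearly; if unreached, use highest concentration. GI50 is the concentration that inhibits growth by half.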 Calls of active or inactive are those of the source. Rule as the data show it: active = GI50 up to about 1.1 µM and inactive = higher.

Among the test systems are 786-0; A549; CCRF-CEM; EKVX; HL-60; IGROV-1; K562; NCI-H23; NCI-H522; OVCAR-3; OVCAR-5; SF-268; SK-OV-3; SW-620; UACC-257; UACC-62.
What all share (assay): inhibition of tumour cell growth, NCI panel, 48 h

Consider `CCOC(=O)C(C(=O)OCC)C1C=CCC2c3ccccc3COCC21` (stereo not drawn), for which the GI50 in the experiment with 786-0 was > 100 µM (inactive); with A549, 66.5 µM (inactive); with CCRF-CEM, 36.1 µM (inactive); with EKVX, 40.5 µM (inactive); with HL-60, 22.4 µM (inactive); in the experiment with IGROV-1, 75.5 µM (inactive). Besides, the GI50 was 41.9 µM (inactive) with K562; 43.6 µM (inactive) in the experiment on NCI-H23; 24.5 µM (inactive) with NCI-H522; 65.5 µM (inactive) with OVCAR-3; > 100 µM (inactive) in the experiment on OVCAR-5; 67.5 µM (inactive) in the experiment with SF-268. Besides, the GI50 in the experiment on SK-OV-3 is 85.5 µM (inactive); in the experiment on SW-620 it was 52.7 µM (inactive); in the experiment on UACC-257 it was 30.3 µM (inactive); with UACC-62, 26.1 µM (inactive).

For the compound `C=CCn1c(-c2ccc(-c3cs/c(=N\N=O)n3CC=C)cc2)cs/c1=N\N=O`, the GI50 in the experiment on 786-0 is 62.5 µM (inactive); in the experiment with A549 it was > 100 µM (inactive); in the experiment with CCRF-CEM, > 100 µM (inactive); in the experiment with EKVX, > 100 µM (inactive); in the experiment on HL-60 it was > 100 µM (inactive); in the experiment on IGROV-1, > 100 µM (inactive). The GI50 in the experiment on K562 is > 100 µM (inactive); in the experiment on NCI-H23 it was > 100 µM (inactive); with NCI-H522, 83.2 µM (inactive); in the experiment on OVCAR-3, > 100 µM (inactive); with OVCAR-5, > 100 µM (inactive); with SF-268 it was > 100 µM (inactive). The GI50 in the experiment with SK-OV-3 is 40.7 µM (inactive); in the experiment with SW-620 it was > 100 µM (inactive); in the experiment on UACC-257, > 100 µM (inactive); in the experiment with UACC-62 it was > 100 µM (inactive).

In the case of `c1cc(-c2cnc(-c3ccc4c(c3)CCCO4)o2)ccn1`, the GI50 is 19.5 µM (inactive) in the experiment with 786-0; 16.2 µM (inactive) in the experiment with A549; 5.98 µM (inactive) with CCRF-CEM; 17.7 µM (inactive) in the experiment with EKVX; 4.33 µM (inactive) in the experiment with HL-60; 17.9 µM (inactive) in the experiment with IGROV-1. Moreover, the GI50 in the experiment with K562 was 5.05 µM (inactive); in the experiment with NCI-H23, 15.5 µM (inactive); in the experiment on NCI-H522, 10 µM (inactive); in the experiment on OVCAR-3, 16.4 µM (inactive); with OVCAR-5 it was 13.6 µM (inactive); in the experiment on SF-268 it was 15.6 µM (inactive). Moreover, the GI50 was 20.3 µM (inactive) in the experiment with SK-OV-3, 15.1 µM (inactive) in the experiment with UACC-257 and 17.1 µM (inactive) in the experiment on UACC-62.

For `Nc1ccc2[nH]cc(CCC(=O)O)c2c1`, the GI50 in the experiment with 786-0 was > 100 µM (inactive); in the experiment with A549 it was > 100 µM (inactive); in the experiment with CCRF-CEM, 9.48 µM (inactive); with EKVX, > 100 µM (inactive); with HL-60, 27.3 µM (inactive); in the experiment on IGROV-1, > 100 µM (inactive). Besides, the GI50 with NCI-H23, with NCI-H522, in the experiment on OVCAR-3, in the experiment on OVCAR-5, in the experiment on SF-268 and in the experiment with SK-OV-3 was > 100 µM (inactive) throughout. In addition, the GI50 in the experiment on SW-620 is 88.1 µM (inactive); with UACC-257 it was > 100 µM (inactive); with UACC-62, > 100 µM (inactive).

For the compound `Nc1nc(N)c2c(-c3ccccc3)ccnc2n1`, the GI50 in the experiment with 786-0 was 67.1 µM (inactive); in the experiment on CCRF-CEM, > 100 µM (inactive); in the experiment on EKVX, 18.5 µM (inactive); with HL-60, > 100 µM (inactive); with IGROV-1, > 100 µM (inactive); in the experiment with K562, > 100 µM (inactive). For the same compound, the GI50 in the experiment on NCI-H23, in the experiment on NCI-H522, in the experiment on OVCAR-3, with OVCAR-5, with SF-268 and in the experiment with SK-OV-3 was > 100 µM (inactive) throughout. In addition, the GI50 with SW-620 was 39.7 µM (inactive); in the experiment on UACC-257, > 100 µM (inactive); with UACC-62, > 100 µM (inactive).

Take `N=c1oc2ccc3ccccc3c2cc1-c1nc(O)c2ccccc2n1`: the GI50 in the experiment on 786-0 is 24.3 µM (inactive); with A549, 20.7 µM (inactive); with EKVX, 19.5 µM (inactive); with HL-60 it was 8.73 µM (inactive); in the experiment on IGROV-1, 16 µM (inactive); in the experiment on K562, 19.7 µM (inactive). The GI50 in the experiment on NCI-H522 is 3.27 µM (inactive); in the experiment on OVCAR-5, 96.6 µM (inactive); in the experiment with SF-268, 30.8 µM (inactive); in the experiment on SK-OV-3, 19.9 µM (inactive); with SW-620 it was 36.8 µM (inactive); in the experiment on UACC-257, 42.5 µM (inactive). Moreover, the GI50 with UACC-62 was 12.8 µM (inactive).

In the case of `c1ccc2nc(CCC3CCCCN3)ccc2c1` (stereo not drawn), the GI50 in the experiment with 786-0 is > 100 µM (inactive); in the experiment with A549, > 100 µM (inactive); in the experiment with CCRF-CEM it was 83.2 µM (inactive); in the experiment on EKVX, 42.2 µM (inactive); with HL-60, 67.9 µM (inactive); in the experiment with IGROV-1, 69.8 µM (inactive). Further, the GI50 in the experiment with K562 was 47.4 µM (inactive); in the experiment with NCI-H23, 72.9 µM (inactive); in the experiment on NCI-H522, 40.6 µM (inactive); in the experiment on OVCAR-5, > 100 µM (inactive); in the experiment on SF-268 it was > 100 µM (inactive); in the experiment on SK-OV-3 it was > 100 µM (inactive). Further, the GI50 in the experiment on SW-620 is > 100 µM (inactive); in the experiment on UACC-257, 42.7 µM (inactive); in the experiment with UACC-62, > 100 µM (inactive).

Take `CC(=O)c1ccc(Nc2nc3ccccc3c3occc23)cc1`: the GI50 was 5.6 µM (inactive) in the experiment with 786-0; 11.1 µM (inactive) with A549; 10.5 µM (inactive) with CCRF-CEM; 15.9 µM (inactive) in the experiment on EKVX; 0.036 µM (active) in the experiment with HL-60; 9.06 µM (inactive) in the experiment on IGROV-1. Moreover, the GI50 in the experiment on NCI-H23 is 12.2 µM (inactive); in the experiment with NCI-H522 it was 2.88 µM (inactive); in the experiment with OVCAR-3, 14.9 µM (inactive); in the experiment on OVCAR-5, 36 µM (inactive); in the experiment with SF-268 it was 14.1 µM (inactive); with SK-OV-3, 18.4 µM (inactive). In addition, the GI50 in the experiment with UACC-257 is 13.2 µM (inactive); in the experiment on UACC-62, 10.7 µM (inactive).

With `CCn1c2ccccc2c2cc(Nc3cc(C)[nH]c(=O)n3)ccc21`, the GI50 was > 100 µM (inactive) in the experiment on 786-0; > 100 µM (inactive) with A549; > 100 µM (inactive) with EKVX; 0.255 µM (active) in the experiment on HL-60; 0.47 µM (active) in the experiment with K562; > 100 µM (inactive) in the experiment on NCI-H23. The GI50 was 0.916 µM (active) in the experiment with NCI-H522; > 100 µM (inactive) with OVCAR-3; > 100 µM (inactive) in the experiment with OVCAR-5; > 100 µM (inactive) with SF-268; > 100 µM (inactive) in the experiment on SK-OV-3; > 100 µM (inactive) with SW-620. Also, the GI50 was > 100 µM (inactive) in the experiment on UACC-257 and 0.349 µM (active) in the experiment with UACC-62.

In the case of `O=C1/C(=C\c2ccc([N+](=O)[O-])cc2)N(S(=O)(=O)c2ccccc2)c2ncccc21`, the GI50 in the experiment on 786-0 is 16.5 µM (inactive); in the experiment on A549, 40.2 µM (inactive); with CCRF-CEM, 2.98 µM (inactive); with EKVX it was > 10 µM (inactive); in the experiment on HL-60, 2.18 µM (inactive); with IGROV-1, 18.3 µM (inactive). In addition, the GI50 with K562 is 3.55 µM (inactive); in the experiment with NCI-H23, 13.7 µM (inactive); with NCI-H522, 18.3 µM (inactive); with OVCAR-3 it was 12.2 µM (inactive); in the experiment with SF-268 it was 23.1 µM (inactive); in the experiment on SK-OV-3 it was 0.0212 µM (active). Also, the GI50 is 14.9 µM (inactive) in the experiment with SW-620, 21.8 µM (inactive) in the experiment on UACC-257 and 9.23 µM (inactive) in the experiment on UACC-62.

For `C=CCN1CC2CN=NC2(C#N)C1` (stereo not drawn), the GI50 with 786-0, in the experiment on A549, with CCRF-CEM, in the experiment on EKVX, with HL-60 and with IGROV-1 was > 100 µM (inactive) each time. The GI50 in the experiment with K562, in the experiment with NCI-H23, with NCI-H522, with OVCAR-3, in the experiment with OVCAR-5 and with SF-268 was > 100 µM (inactive) throughout. Further, the GI50 in the experiment with SW-620, with UACC-257 and in the experiment on UACC-62 was > 100 µM (inactive) in each case.

Consider `NCC1CCCCC1.O=C(O)NCC1CCCCC1`, for which the GI50 in the experiment on 786-0 is 24.1 µM (inactive); in the experiment on A549, 30.1 µM (inactive); in the experiment on CCRF-CEM, 15.7 µM (inactive); with EKVX, 30.1 µM (inactive); in the experiment with HL-60 it was 15.6 µM (inactive); in the experiment with IGROV-1, 9.12 µM (inactive). Also, the GI50 with K562 was 6.28 µM (inactive); in the experiment on NCI-H23 it was 23.3 µM (inactive); in the experiment on NCI-H522 it was 10.7 µM (inactive); in the experiment on OVCAR-3, 4.89 µM (inactive); with OVCAR-5 it was 31.9 µM (inactive); in the experiment on SF-268, 12.8 µM (inactive). The GI50 in the experiment with SW-620 was 17.9 µM (inactive); in the experiment with UACC-257 it was 22.2 µM (inactive); with UACC-62, 18.7 µM (inactive).

As to `COC(=O)c1ccc(/C=C2\Oc3ccccc3C2=O)cc1`, the GI50 in the experiment on 786-0 was > 100 µM (inactive); with A549 it was > 100 µM (inactive); with CCRF-CEM, 58.1 µM (inactive); in the experiment on EKVX, > 100 µM (inactive); in the experiment on HL-60 it was 16.4 µM (inactive); with IGROV-1, > 100 µM (inactive). In addition, the GI50 was > 10 µM (inactive) in the experiment with K562; > 100 µM (inactive) in the experiment with NCI-H23; 32.1 µM (inactive) in the experiment on NCI-H522; > 100 µM (inactive) in the experiment on OVCAR-3; > 100 µM (inactive) in the experiment with SF-268; > 100 µM (inactive) in the experiment on SK-OV-3. The GI50 in the experiment with SW-620, with UACC-257 and in the experiment on UACC-62 was > 100 µM (inactive) throughout.
